This is an account of results in ChEMBL document CHEMBL3286221, “Design and synthesis of novel 1,2,3-triazole derivatives of coronopilin as anti-cancer compounds” (Eur J Med Chem, 2014).

The nature of assay [1]: Cytotoxicity against human HCT15 cells after 48 hrs by sulforhodamine B assay. The format is functional, cell-based. Particulars: HCT-15, 48 h.
The test system of assay [2] is HeLa. The assay is described as follows: Cytotoxicity against human HeLa cells after 48 hrs by sulforhodamine B assay. The format is functional, cell-based.
Assay [3] relates to A549. The assay is described as follows: Cytotoxicity against human A549 cells after 48 hrs by sulforhodamine B assay. It is filed as functional, cell-based. As to conditions: A549, 48 h.
Assay [4] deals with MCF7. The assay is described as follows: Cytotoxicity against human MCF7 cells after 48 hrs by sulforhodamine B assay. As to conditions: MCF7, 48 h. It is filed as functional, cell-based.
The test system of assay [5] is THP-1. The assay is described as follows: Cytotoxicity against human THP1 cells after 48 hrs by sulforhodamine B assay. It is filed as functional, cell-based. As to conditions: THP-1, 48 h.
The test system of assay [6] is PC-3. As to the kind of experiment: Cytotoxicity against human PC3 cells after 48 hrs by sulforhodamine B assay. The format is functional, cell-based. Particulars: PC-3, 48 h.
Assay [7] has as its system PC-3. The assay is described as follows: Cell cycle arrest in human PC3 cells assessed as accumulation at sub-G1 phase at 5 uM after 24 hrs by propidium iodide staining-based flow cytometric analysis (reference value: 13.1%). The format is functional.
Assay [8] relates to PC-3. As to the kind of experiment: Cell cycle arrest in human PC3 cells assessed as accumulation at G0/G1 phase at 5 uM after 24 hrs by propidium iodide staining-based flow cytometric analysis (reference value: 68.2%). It is filed as functional.
For assay [9], the system named is PC-3. As to the kind of experiment: Cell cycle arrest in human PC3 cells assessed as accumulation at S phase at 5 uM after 24 hrs by propidium iodide staining-based flow cytometric analysis (reference value: 8.5%). The format is functional.
Assay [10] has as its system PC-3. The assay is described as follows: Cell cycle arrest in human PC3 cells assessed as accumulation at M phase at 5 uM after 24 hrs by propidium iodide staining-based flow cytometric analysis (reference value: 3%). The format is functional.

Take `C=C1C(=O)O[C@@H]2[C@H]1CC[C@H](C)[C@]1(O)[C@@H](n3cc(CNn4ccc5cc(Br)ccc54)nn3)CC(=O)[C@@]21C`: the IC50 in assay [1] is 26 µM; in [2], 7.2 µM; in assay [3], 100 µM; in assay [4], 4.5 µM.
Consider `C=C1C(=O)O[C@@H]2[C@H]1CC[C@H](C)[C@]1(O)[C@@H](n3cc(CNc4ccccc4OC)nn3)CC(=O)[C@@]21C`, for which the IC50 in assay [5] was 100 µM; in assay [1] it was 15 µM; in [2] it was 28 µM; in assay [3], 23 µM; in assay [4], 28 µM.
Take `C=C1C(=O)O[C@@H]2[C@H]1CC[C@H](C)[C@]1(O)[C@@H](n3cc(CNc4ccc(COC(F)(F)F)cc4)nn3)CC(=O)[C@@]21C`: the IC50 in assay [1] stood at 100 µM; in assay [2] it was 17 µM; in assay [3], 23 µM; in assay [4] it was 17 µM.
On to `C=C1C(=O)O[C@@H]2[C@H]1CC[C@H](C)[C@]1(O)[C@@H](n3cc(CCC)nn3)CC(=O)[C@@]21C`, for which the IC50 in assay [6] is 100 µM; in assay [1], 5.5 µM; in assay [2], 8.4 µM; in assay [3], 12 µM; in [4] it was 14 µM.
On to `C=C1C(=O)O[C@@H]2[C@H]1CC[C@H](C)[C@]1(O)C=CC(=O)[C@@]21C` [PARTHENIN], for which the IC50 amounted to 46.2 µM in assay [5]; 43.1 µM in assay [6]; 35.3 µM in [1]; 37.6 µM in assay [3]; 40.2 µM in [4].
As to `CC[C@@]1(O)C(=O)OCc2c1cc1n(c2=O)Cc2cc3ccccc3nc2-1` [CAMPTOTHECIN], the Activity in assay [7] amounted to 60.44%; in assay [8], 30.17%; in [9], 4.94%; in assay [10], 4.76%.
`O=c1[nH]cc(F)c(=O)[nH]1` [FLUOROURACIL]: the IC50 is 4.5 µM in [1] and 4.9 µM in assay [2].
`CO[C@@]12[C@H](COC(N)=O)C3=C(C(=O)C(C)=C(N)C3=O)N1C[C@@H]1N[C@@H]12` [MITOMYCIN] registered a half-maximal inhibitory concentration (IC50) in assay [1] of 0.5 µM.
For `C=C1C(=O)O[C@@H]2[C@H]1CC[C@H](C)[C@]1(O)[C@@H](n3cc(CNc4ccccc4Br)nn3)CC(=O)[C@@]21C`, the IC50 in assay [5] amounted to 100 µM; in assay [1], 20 µM; in [2], 4.8 µM; in [3] it was 100 µM; in [4], 4.2 µM.
Turning to `C=C1C(=O)O[C@@H]2[C@H]1CC[C@H](C)[C@]1(O)[C@@H](n3cc(COc4ccc(C(C)C)cc4C)nn3)CC(=O)[C@@]21C`, the IC50 was determined as 33 µM in [5]; 7.5 µM in [6]; 45 µM in assay [1]; 6.8 µM in [2]; 21 µM in assay [3]; 32 µM in [4].
On to `C=C1C(=O)O[C@@H]2[C@H]1CC[C@H](C)[C@]1(O)[C@@H](n3cc(CNc4ccc(F)cc4)nn3)CC(=O)[C@@]21C`, for which the 50% inhibitory concentration (IC50) in [5] is 100 µM; in assay [1] it was 6.5 µM; in assay [2] it was 15 µM; in assay [3], 100 µM; in assay [4] it was 15 µM.
With `C=C1C(=O)O[C@@H]2[C@H]1CC[C@H](C)[C@]1(O)[C@@H](n3cc(COc4ccc(C)cc4)nn3)CC(=O)[C@@]21C`, the IC50 in assay [5] worked out at 26 µM; in assay [6], 7.6 µM; in [1] it was 39 µM; in [2], 100 µM; in assay [3], 21 µM; in [4] it was 4.2 µM.
With `C=C1C(=O)O[C@@H]2[C@H]1CC[C@H](C)[C@]1(O)[C@@H](n3cc(COc4ccccc4C)nn3)CC(=O)[C@@]21C`, the IC50 is 3.8 µM in assay [5]; 10 µM in assay [6]; 5.5 µM in assay [1]; 8.4 µM in assay [2]; 6.2 µM in [3]; 3.7 µM in assay [4].
On to `C=C1C(=O)O[C@@H]2[C@H]1CC[C@H](C)[C@]1(O)[C@@H](n3cc(COc4ccc(Cl)cc4)nn3)CC(=O)[C@@]21C`, for which the IC50 was 12 µM in assay [5]; 5.2 µM in [6]; 27 µM in assay [1]; 3.6 µM in assay [2]; 4.1 µM in assay [3]; 7 µM in assay [4].
With `C=C1C(=O)O[C@@H]2[C@H]1CC[C@H](C)[C@]1(O)[C@@H](n3cc(COc4ccccc4F)nn3)CC(=O)[C@@]21C`, the IC50 in assay [5] was found to be 25 µM; in assay [6], 4.3 µM; in assay [1] it was 23 µM; in [2] it was 3.9 µM; in [3] it was 6.3 µM; in assay [4], 4.3 µM.
Consider `C=C1C(=O)O[C@@H]2[C@H]1CC[C@H](C)[C@]1(O)[C@@H](n3cc(CCc4ccccc4)nn3)CC(=O)[C@@]21C`, for which the IC50 in assay [5] is 100 µM; in assay [1] it was 4.3 µM; in assay [2], 16 µM; in assay [3] it was 5.8 µM; in assay [4], 16 µM.
In the case of `C=C1C(=O)O[C@@H]2[C@H]1CC[C@H](C)[C@]1(O)[C@@H](n3cc(COc4ccc(C(F)(F)F)cc4)nn3)CC(=O)[C@@]21C`, the IC50 in assay [5] came out at 48 µM; in assay [6], 6.4 µM; in assay [1], 100 µM; in assay [2], 3.5 µM; in [3] it was 3.8 µM; in assay [4], 13 µM.
In turn, `COc1cccc2c1C(=O)c1c(O)c3c(c(O)c1C2=O)C[C@@](O)(C(=O)CO)C[C@@H]3O[C@H]1C[C@H](N)[C@H](O)[C@H](C)O1` [DOXORUBICIN] had an IC50 in [4] of 0.5 µM.
On to `C=C1C(=O)O[C@@H]2[C@H]1CC[C@H](C)[C@]1(O)[C@@H](n3cc(CNc4ccccc4C)nn3)CC(=O)[C@@]21C`, for which the IC50 in assay [5] came to 17 µM; in [6] it was 4.6 µM; in [1], 8.5 µM; in assay [2], 3.9 µM; in assay [3], 23 µM; in [4] it was 15 µM.
As to `C=C1C(=O)O[C@@H]2[C@H]1CC[C@H](C)[C@]1(O)[C@@H](n3cc(CNc4ccccc4F)nn3)CC(=O)[C@@]21C`, the IC50 was 3.3 µM in assay [6]; 100 µM in [1]; 3.7 µM in [2]; 34 µM in [3]; 5.1 µM in assay [4].
In the case of `C=C1C(=O)O[C@@H]2[C@H]1CC[C@H](C)[C@]1(O)[C@@H](n3cc(COc4ccc(Br)cc4)nn3)CC(=O)[C@@]21C`, the half-maximal inhibitory concentration (IC50) in [5] is 10 µM; in assay [6], 4.7 µM; in [1], 48 µM; in [2], 6.5 µM; in assay [3], 14 µM; in assay [4] it was 16 µM.
Take `C=C1C(=O)O[C@@H]2[C@H]1CC[C@H](C)[C@]1(O)[C@@H](n3cc(COc4ccc5ccccc5c4)nn3)CC(=O)[C@@]21C`: the IC50 was determined as 25 µM in [5]; 3.6 µM in [6]; 20 µM in [1]; 7.3 µM in assay [2]; 9 µM in assay [3]; 24 µM in assay [4].
Consider `C=C1C(=O)O[C@@H]2[C@H]1CC[C@H](C)[C@]1(O)[C@@H](n3cc(COc4ccccc4Br)nn3)CC(=O)[C@@]21C`, for which the IC50 in assay [5] amounted to 19 µM; in [6] it was 5.6 µM; in assay [1] it was 12 µM; in assay [2] it was 4.8 µM; in [3], 8.8 µM; in assay [4], 3.4 µM.
